Assay results from ChEMBL document CHEMBL2396570, “Structural basis for the design and synthesis of selective HDAC inhibitors” (Bioorg Med Chem, 2013).

Key:
Homo sapiens [1] = species on record: Homo sapiens; assay: Selectivity ratio for human HDAC4 over human HDAC1
Homo sapiens [2] = species on record: Homo sapiens; assay: Selectivity ratio for human HDAC4 over human HDAC2
Homo sapiens [3] = species on record: Homo sapiens; assay: Selectivity ratio for human HDAC4 over human HDAC3
Homo sapiens [4] = species on record: Homo sapiens; assay: Selectivity ratio for human HDAC4 over human HDAC8

Measured: Selectivity ratio

Cn1cc(/C=C/C(=O)c2cccc(F)c2)cc1/C=C/C(=O)NO
176: all assays above
